Results as given in ChEMBL document CHEMBL1134875, “Binding modes of two novel dinucleotide inhibitors of HIV-1 integrase” (Bioorg Med Chem Lett, 2002).

Experiments:
[1] = molecular target: T1, Human immunodeficiency virus type 1 integrase (Human immunodeficiency virus 1, UniProt Q7ZJM1); assay: Compound was tested for the inhibition HIV integrase strand transfer activity
[2] = molecular target: T1, Human immunodeficiency virus type 1 integrase; assay: Compound was tested for the inhibition HIV integrase 3'-processing activity

T1 sequence (Q7ZJM1 whole entry): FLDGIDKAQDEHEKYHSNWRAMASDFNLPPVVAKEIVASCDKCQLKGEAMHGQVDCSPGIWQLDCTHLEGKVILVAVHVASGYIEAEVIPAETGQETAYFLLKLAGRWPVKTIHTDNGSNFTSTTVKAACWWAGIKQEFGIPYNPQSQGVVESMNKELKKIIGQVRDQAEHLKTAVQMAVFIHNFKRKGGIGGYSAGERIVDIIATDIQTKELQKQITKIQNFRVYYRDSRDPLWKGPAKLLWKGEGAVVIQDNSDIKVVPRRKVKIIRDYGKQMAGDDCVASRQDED

IC50 [1]: 25 µM | IC50 [2]: 19 µM
Compound: Nc1ccn([C@H]2C[C@@H](O)[C@@H](COP(=O)(O)O[C@@H]3[C@H](COP(=O)(O)O)OC[C@@H]3n3cnc4c(N)ncnc43)O2)c(=O)n1
